Experimental findings from patent US3935309A, “Synergistic combinations of phosphonomycin and bacteriostatic agents” (Merck & Co., Inc., priority 1974, dated 1976) are described below.

A word on the MIC: it is the lowest concentration that inhibits growth of the organism.

Experiment [1] has as its system Pseudomonas aeruginosa 3210. The experiment in a line: Combined antibiotic therapy of experimental infection in mice (Example 5). Format: in vivo, mice infected with Pseudomonas aeruginosa 3210. As to conditions: for s.c. ED50: 10 LD50. The source says:
(§1) For example, using Escherichia coli 2017 as the infecting agent, sodium phosphonomycin was titrated alone and in the presence 5 and also in the presence of 0.5γtetracycline, while tetracycline was titrated alone and in the presence of 50γ, and also in the presence of 5γof sodium phosphonomycin. The two drugs were given by the subcutaneous route at separate sites on the ventral surface of the mouse. Such therapy was given only at the time of infection for the Escherichia coli and Pseudomonas aeruginosa tests but both at the time of infection and 6 hours later for all other tests. Infection was given intraperitoneally using broth suspensions of the test organism.

Experiment [2] concerns Klebsiella pneumoniae. The experiment is described as follows: MIC by two-fold serial broth dilution, alone and in combination (Example 1). Format: cell-based. Here is the method:
(§2) The MIC (minimum inhibitory concentration) of phosphonomycin and each of the other antibiotics by itself was determined before the combination synergy experiment was begun, as follows: 2 ml. of a double strength solution in sterile distilled water of the highest strength to be tested (usually 1000γ) was added to a tube of double strength nutrient broth (NB) and mixed thoroughly. Two-fold serial dilutions were then made by transferring 2 ml. to the next tube (1 × NB) and so on for approximately 12 tubes. The tubes were inoculated with one drop each of a 1:50 dilution of a culture adjusted to a Lumetron 60 reading in NB + 0.2% yeast extract so as to provide a concentration of cells of approximately 25,000/ml. The tubes were then incubated at 37°C. and examined for growth at 24, 48 and 72 hours.
(§3) In the combination experiment, the MIC value obtained as described above was used as approximately the midpoint of the range to be tested for each of the two antibiotics of the combination. In a manner similar to the above, two-fold dilutions of the first substance in the combination were made except that 1.8 ml. volumes were used and a 2.2 × strength solution of both the antibiotic and the NB were made. The second antibiotic of the combination was added to duplicate rows of serial dilutions of the first substance as follows: 0.2 ml. in NB of a [formula] and a [formula] respectively, of the second substance was added to each tube in a row of serial dilutions of the first antibiotic. The final concentration that resulted enabled the determination of the effect of both MIC/4 and MIC/8 of each substance in the presence of from approximately 32 MIC to [formula] of the other. Inocula were added as in the initial single MIC experiment.

Experiment [3] concerns Proteus vulgaris. Described as above. The experiment is classed as cell-based. The protocol: as §2, §3
In experiment [4] the test system is Staphylococcus aureus. Described as above. Format: cell-based. Here is the method: as §2, §3
Experiment [5] relates to Pseudomonas aeruginosa. The description is as above. Format: cell-based. Here is the method:
as §2, §3

In experiment [6] the test system is Streptococcus faecalis. The experiment is described as above. Format: cell-based. The protocol:
as §2, §3

The test system of experiment [7] is Pseudomonas stutzeri. The description is as above. Format: cell-based. The protocol: as §2, §3
Experiment [8] has as its system Klebsiella pneumoniae "B". The experiment in a line: Combined antibiotic therapy of experimental infection in mice (Example 5). The note with it: for s.c. ED50: 7 LD50. The experiment is classed as in vivo, mice infected with Klebsiella pneumoniae "B".
From the text: as §1

Experiment [9] relates to pathogenic bacteria. The experiment is described as follows: in vitro combination tests with various pathogens (general description). Format: cell-based. The note with it: for potentiation when combined with phosphonomycin: various strains of pathogenic bacteria. The source says:
Other experimental results have shown that novobiocin, chlortetracycline and sulfisoxazole are potentiated when combined with phosphonomycin and tested with various strains of pathogenic bacteria.

Experiment [10] relates to Escherichia coli 2017. The experiment in a line: Combined antibiotic therapy of Escherichia coli infection in mice (Example 5). Format: in vivo, mice infected with Escherichia coli 2017. Set-up: ED50: unit not given beside the values. As to conditions: for ED50 / % of effective dose: first test.
From the text: as §1

The subject of experiment [11] is Streptococcus pyogenes 3009. The experiment is described as follows: Combined antibiotic therapy of experimental infection in mice (Example 5). Format: in vivo, mice infected with Streptococcus pyogenes 3009. The note with it: 6 LD50.
From the text: as §1

[12] abbreviates: novobiocin itself, at the levels tested.
[13] abbreviates: alone, therapy at 0 and 6 hours, phosphonomycin as sodium salt.
The mark [14] stands for this setting: combination of 54% tetracycline with .5% sodium phosphonomycin.
[15] abbreviates: phosphonomycin titrated in the presence of 0.5γ tetracycline.
Setting [16] is: tetracycline titrated in the presence of 50γ sodium phosphonomycin.
Where [17] appears, read: tetracycline repeat test, 7 LD50, tetracycline titrated, phosphonomycin constant 0.5.
The mark [18] stands for this setting: tetracycline repeat test, 7 LD50, tetracycline titrated, phosphonomycin constant 50.
Setting [19] is: tetracycline test 1, 9 LD50, alone.
[20] abbreviates: tetracycline test 1, 9 LD50, tetracycline titrated, phosphonomycin constant 5.
[21] abbreviates: tetracycline test 1, 9 LD50, tetracycline titrated, phosphonomycin constant 50.
Where [22] appears, read: tetracycline titrated, phosphonomycin constant 500.
[23] abbreviates: tetracycline titrated, phosphonomycin constant 1000.

Consider `CO[C@@H]1[C@@H](OC(N)=O)[C@@H](O)[C@H](Oc2ccc3c(O)c(NC(=O)c4ccc(O)c(CC=C(C)C)c4)c(=O)oc3c2C)OC1(C)C` [Novobiocin], for which the “s.c. ED50” value in [1] (alone, therapy at 0 hour only, phosphonomycin as sodium salt) was over 10000 µg; in experiment [1] (novobiocin titrated, phosphonomycin > 20), over 10000 µg; in experiment [1] (novobiocin with phosphonomycin >200), over 10000 µg; in [8] (setting [13]) it was over 2500 µg; in experiment [8] (novobiocin titrated, phosphonomycin > 100), over 2500 µg; in experiment [8] (novobiocin with phosphonomycin > 10), over 2500 µg. Further, the protection of mice entry in experiment [1] (setting [12]) and in [8] (setting [12]) was “did not protect” throughout. In addition, the “MIC of 2nd Subst. in presence of ≤ MIC/4 of phosphonomycin” value is under 2 in experiment [2]; 3.9 in experiment [3]; 62.5 in experiment [5]; 4 in experiment [6]; 8 in [7]. Further, the MIC in experiment [2] (Klebsiella pneumoniae, alone, read-out: MIC of 2nd Subst.) is 32 µg/mL; in [3] (Proteus vulgaris, read-out: MIC of 2nd Subst.), 32 µg/mL; in experiment [4] (Staphylococcus aureus, read-out: MIC of 2nd Subst.), 0.06 µg/mL; in [5] (Pseudomonas aeruginosa, read-out: MIC of 2nd Subst.), 250 µg/mL; in experiment [6] (Enterococcus faecalis, read-out: MIC of 2nd Subst.) it was 4 µg/mL; in [7] (Stutzerimonas stutzeri, alone, read-out: MIC of 2nd Subst.), 32 µg/mL. Besides, in experiment [4] (in presence of MIC/2 instead of ≤ MIC/4), the MIC of 2nd Subst. in presence of phosphonomycin stood at 0.015 µg/mL. The “control of pathogens by combination with phosphonomycin” value in experiment [9] is “effective in controlling pathogens which cannot be effectively controlled by either antibiotic separately”. The “potentiation when combined with phosphonomycin” value in [9] is listed as “potentiated”.
Regarding `CN(C)C1C(=O)C(C(N)=O)=C(O)C2(O)C(=O)C3=C(O)c4c(O)cccc4C(C)(O)C3CC12` (stereo not drawn) [Tetracycline], the figures for the ED50 in experiment [10] (alone) and in experiment [10] (titrated in the presence of 50γ sodium phosphonomycin) were 50 γ and 13 γ, respectively. In addition, the “% of effective dose” value in [10] (setting [14]) was determined as 54%; in experiment [10] (setting [15]), 1%; in experiment [10] (setting [16]), 25%. For the same compound, the “% ED50” value in [10] (tetracycline repeat test, 7 LD50, alone) is listed as 100%; in experiment [10] (tetracycline repeat test, 7 LD50, phosphonomycin titrated, tetracycline constant 1), 3%; in experiment [10] (tetracycline repeat test, 7 LD50, phosphonomycin titrated, tetracycline constant 10), 32%; in experiment [10] (setting [17]), 23%; in experiment [10] (setting [18]), 100%; in experiment [10] (setting [19]), 100%. Further, the “% ED50” value in [10] (tetracycline test 1, 9 LD50, phosphonomycin titrated, tetracycline constant 0.5) is on record as 1%; in [10] (tetracycline test 1, 9 LD50, phosphonomycin titrated, tetracycline constant 5) it was 10%; in experiment [10] (setting [20]) it was 54%; in experiment [10] (setting [21]) it was 25%; in experiment [11] (alone), 100%; in [11] (setting [22]), 36%. The “% ED50” value in [11] (setting [23]) stood at 33%. Moreover, the “s.c. ED50” value was determined as 31 µg in experiment [10] (tetracycline repeat test, 7 LD50, alone, single dose at 0 hour, phosphonomycin as sodium salt); 7 µg in experiment [10] (setting [17]); 31 µg in [10] (setting [18]); 50 µg in experiment [10] (tetracycline test 1, 9 LD50, alone, single dose at 0 hour, phosphonomycin as sodium salt); 27 µg in experiment [10] (setting [20]); 13 µg in experiment [10] (setting [21]). Also, the results for the “s.c. ED50” value in experiment [11] (setting [13]), in experiment [11] (setting [22]) and in experiment [11] (setting [23]) were 55 µg, 35 µg and 18 µg, respectively. For the same compound, the “% ED50, Combined %” value in experiment [10] (setting [19]) amounted to 100%. For the same compound, in experiment [10] (two tests, constant quantity of sodium phosphonomycin), the “enhancement of tetracycline activity” value was “enhanced”.
With `C[C@@H]1O[C@@H]1P(=O)(O)O` [sodium phosphonomycin], the ED50 in experiment [10] (alone) and in [10] (titrated in the presence of 0.5γ tetracycline) was 1000 γ throughout. The “% of effective dose” value in experiment [10] (setting [14]) is “.5%”; in experiment [10] (setting [15]), 100%; in [10] (setting [16]) it was 5%. For the same compound, the “enhancement of sodium phosphonomycin activity” value in [10] (two tests, constant quantity of tetracycline) is listed as “In neither test did a constant quantity of tetracycline enhance sodium phosphonomycin activity”. Moreover, in experiment [8] (1 mg. of novobiocin included in the dose), the interaction of combination entry was “could be considered as potentiation”. Also, the “sodium phosphonomycin required to protect the mice” value in experiment [8] (1 mg. of novobiocin included in the dose vs its absence) was “less sodium phosphonomycin was required to protect the mice”.
On to `Cc1noc(NS(=O)(=O)c2ccc(N)cc2)c1C` [sulfisoxazole], for which the “potentiation when combined with phosphonomycin” value in [9] is reported as “potentiated”.
